Experimental data: PubChem BioAssay (NCI)
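Cultured in 96-well plates, cells were exposed to test compound for 48 hours across five concentrations. The concentration for 50% growth inhibition is given as GI50. TGI: total growth inhibition.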

Columns and labels:
Test in all cases: NCI-60 cell line screen, 48 h; in the data active = GI50 below about 0.43 µM; inactive = the rest
[1] = test system: HL-60(TB) leukemia
[2] = test system: SN12C renal
[3] = test system: T-47D breast
[4] = test system: UO-31 renal
[5] = test system: IGROV1 ovarian
[6] = test system: SW-620 colon
[7] = test system: SF-539 CNS
[8] = test system: SNB-19 CNS
[9] = test system: MDA-MB-435
[10] = test system: PC-3 prostate
[11] = test system: SK-MEL-5 melanoma
[12] = test system: NCI-H226 lung
[13] = test system: EKVX NSCLC
[14] = test system: SF-295 CNS
[15] = test system: K-562 leukemia
[16] = test system: NCI-H23 lung
[17] = test system: BT-549 breast
[18] = test system: LOX IMVI melanoma
[19] = test system: CCRF-CEM leukemia
[20] = test system: KM12 colon
[21] = test system: A498 renal
[22] = test system: TK-10 renal
[23] = test system: SK-MEL-28 melanoma
[24] = test system: MALME-3M melanoma
[25] = test system: HOP-62 NSCLC
[26] = test system: NCI-H522 lung
[27] = test system: UACC-257 melanoma
[28] = test system: SNB-75 CNS
[29] = test system: CAKI-1 renal
[30] = test system: COLO 205 colon
[31] = test system: MDA-MB-231 breast
[32] = test system: SR leukemia
[33] = test system: M14 melanoma
[34] = test system: HCC-2998 colon
[35] = test system: SF-268 CNS
[36] = test system: MCF7 breast
[37] = test system: UACC-62 melanoma
[38] = test system: HT29 colon
[39] = test system: HS 578T breast
[40] = test system: HCT-116 colon
[41] = test system: OVCAR-8 ovarian
[42] = test system: SK-OV-3 ovarian
[43] = test system: RPMI-8226 leukemia
[44] = test system: MOLT-4 leukemia
[45] = test system: A549 NSCLC
[46] = test system: NCI-H460 lung
[47] = test system: DU-145 prostate
[48] = test system: MDA-N
[49] = test system: HCT-15 colon
[50] = test system: ACHN renal
[51] = test system: 786-0 renal
[52] = test system: HOP-92 NSCLC
[53] = test system: OVCAR-3 ovarian
[54] = test system: OVCAR-5 ovarian
[55] = test system: SK-MEL-2 melanoma
[56] = test system: U251 CNS
[57] = test system: NCI/ADR-RES ovarian
[58] = test system: OVCAR-4 ovarian
[59] = test system: RXF 393 renal

CC1=NC(=Cc2ccc(O)cc2)C(=O)N1n1c(-c2ccccc2)nc2ccccc2c1=O
> 100 µM: TGI [1] | TGI [2] | TGI [3] | TGI [4] | TGI [5] | TGI [6] | TGI [7] | TGI [8] | TGI [9] | TGI [10] | TGI [11] | TGI [12] | TGI [13] | TGI [14] | TGI [15] | TGI [16] | TGI [17] | TGI [18] | TGI [19] | TGI [20] | TGI [21] | TGI [22] | TGI [23] | TGI [24] | TGI [25] | TGI [26] | TGI [27] | TGI [28] | TGI [29] | TGI [30] | TGI [31] | TGI [32] | TGI [33] | TGI [34] | TGI [35] | TGI [36] | TGI [37] | TGI [38] | TGI [39] | TGI [40] | TGI [41] | TGI [42] | TGI [43] | TGI [44] | TGI [45] | TGI [46] | TGI [47] | TGI [48] | TGI [49] | TGI [50] | TGI [51]

O=C(C(=O)N1CCc2ccccc21)c1c[nH]c2ccccc12
> 10 µM: TGI [1] | TGI [2] | TGI [3] | TGI [4] | TGI [5] | TGI [6] | TGI [7] | TGI [8] | TGI [9] | TGI [10] | TGI [11] | TGI [12] | TGI [13] | TGI [14] | TGI [15] | TGI [16] | TGI [52] | TGI [17] | TGI [18] | TGI [19] | TGI [20] | TGI [53] | TGI [22] | TGI [23] | TGI [54] | TGI [24] | TGI [25] | TGI [26] | TGI [27] | TGI [28] | TGI [29] | TGI [30] | TGI [55] | TGI [31] | TGI [32] | TGI [33] | TGI [34] | TGI [35] | TGI [36] | TGI [37] | TGI [38] | TGI [39] | TGI [40] | TGI [41] | TGI [42] | TGI [43] | TGI [44] | TGI [45] | TGI [46] | TGI [47] | TGI [56] | TGI [48] | TGI [57] | TGI [58] | TGI [49] | TGI [50] | TGI [59] | TGI [51]

O=C(O)c1cccc(OCCO)c1
> 100 µM: TGI [1] | TGI [2] | TGI [3] | TGI [4] | TGI [5] | TGI [6] | TGI [7] | TGI [8] | TGI [9] | TGI [10] | TGI [11] | TGI [12] | TGI [13] | TGI [14] | TGI [15] | TGI [16] | TGI [52] | TGI [17] | TGI [18] | TGI [20] | TGI [53] | TGI [21] | TGI [22] | TGI [23] | TGI [54] | TGI [24] | TGI [25] | TGI [26] | TGI [27] | TGI [29] | TGI [30] | TGI [55] | TGI [31] | TGI [32] | TGI [33] | TGI [35] | TGI [36] | TGI [37] | TGI [38] | TGI [39] | TGI [40] | TGI [41] | TGI [42] | TGI [43] | TGI [44] | TGI [45] | TGI [46] | TGI [47] | TGI [56] | TGI [48] | TGI [57] | TGI [58] | TGI [49] | TGI [50] | TGI [59] | TGI [51]

O=C(O)Cc1c(O)ccc2ccccc12
> 100 µM: TGI [2] | TGI [3] | TGI [5] | TGI [6] | TGI [7] | TGI [8] | TGI [9] | TGI [10] | TGI [11] | TGI [12] | TGI [13] | TGI [14] | TGI [15] | TGI [16] | TGI [52] | TGI [17] | TGI [18] | TGI [20] | TGI [53] | TGI [21] | TGI [22] | TGI [23] | TGI [54] | TGI [24] | TGI [25] | TGI [26] | TGI [27] | TGI [28] | TGI [29] | TGI [30] | TGI [55] | TGI [31] | TGI [32] | TGI [33] | TGI [35] | TGI [36] | TGI [37] | TGI [38] | TGI [39] | TGI [40] | TGI [41] | TGI [42] | TGI [43] | TGI [44] | TGI [45] | TGI [46] | TGI [47] | TGI [56] | TGI [48] | TGI [57] | TGI [58] | TGI [49] | TGI [50] | TGI [59] | TGI [51]

C[C@H]1[C@H](C)CC[C@]2(C)CC[C@]3(C)C(=C[C@@H](O)[C@@H]4[C@@]5(C)[C@H](O)[C@@H](O)[C@H](O)C(C)(C)[C@@H]5CC[C@]43C)[C@H]12
> 100 µM: TGI [1] | TGI [2] | TGI [3] | TGI [4] | TGI [5] | TGI [6] | TGI [7] | TGI [8] | TGI [9] | TGI [10] | TGI [11] | TGI [13] | TGI [14] | TGI [15] | TGI [16] | TGI [17] | TGI [18] | TGI [19] | TGI [20] | TGI [53] | TGI [21] | TGI [54] | TGI [25] | TGI [27] | TGI [29] | TGI [30] | TGI [55] | TGI [31] | TGI [32] | TGI [33] | TGI [35] | TGI [36] | TGI [37] | TGI [38] | TGI [39] | TGI [40] | TGI [41] | TGI [42] | TGI [43] | TGI [44] | TGI [45] | TGI [46] | TGI [47] | TGI [56] | TGI [48] | TGI [57] | TGI [49] | TGI [50] | TGI [59] | TGI [51]
inactive: GI50 [3] 18.7 µM
active: GI50 [13] 0.0221 µM | GI50 [59] 0.361 µM

CN1CCOC1(C)CO (centres undefined)
> 100 µM: TGI [1] | TGI [3] | TGI [4] | TGI [5] | TGI [6] | TGI [7] | TGI [8] | TGI [9] | TGI [10] | TGI [11] | TGI [12] | TGI [13] | TGI [14] | TGI [15] | TGI [16] | TGI [52] | TGI [17] | TGI [18] | TGI [19] | TGI [20] | TGI [53] | TGI [21] | TGI [22] | TGI [54] | TGI [24] | TGI [25] | TGI [26] | TGI [27] | TGI [28] | TGI [29] | TGI [30] | TGI [55] | TGI [31] | TGI [32] | TGI [33] | TGI [35] | TGI [36] | TGI [37] | TGI [38] | TGI [39] | TGI [40] | TGI [41] | TGI [42] | TGI [43] | TGI [44] | TGI [45] | TGI [46] | TGI [56] | TGI [48] | TGI [57] | TGI [58] | TGI [49] | TGI [50] | TGI [59] | TGI [51]

COC1=C(Br)[C@H](O)[C@@]2(C=C1Br)CC(C(=O)NCCCCCN=C(N)N)=NO2
> 10 µM: TGI [1] | TGI [2] | TGI [3] | TGI [4] | TGI [5] | TGI [6] | TGI [7] | TGI [8] | TGI [9] | TGI [10] | TGI [11] | TGI [12] | TGI [14] | TGI [15] | TGI [16] | TGI [17] | TGI [18] | TGI [19] | TGI [20] | TGI [53] | TGI [21] | TGI [22] | TGI [23] | TGI [54] | TGI [24] | TGI [25] | TGI [26] | TGI [27] | TGI [28] | TGI [30] | TGI [55] | TGI [31] | TGI [32] | TGI [33] | TGI [34] | TGI [35] | TGI [36] | TGI [37] | TGI [38] | TGI [39] | TGI [40] | TGI [41] | TGI [42] | TGI [43] | TGI [44] | TGI [45] | TGI [46] | TGI [47] | TGI [56] | TGI [48] | TGI [57] | TGI [58] | TGI [49] | TGI [50] | TGI [59] | TGI [51]
